Data as given in paper PMC3767324, “Synthesis, Characterization, and BSA Binding Studies of Some New Benzamides Related to Schiff Base” (ISRN Organic Chemistry, 2013).
Converted amounts (≈) assume the structure as drawn. Where two headings read alike, the source gives them in different places.

Experiments:
[1] = DPPH free radical scavenging activity; conditions: DPPH 0.1 mM, absorbance at 517 nm; triplicate, mean ± SD
Protocol: The capacity to scavenge the stable free radical 2,2-diphenyl-1-picrylhydrazyl (DPPH) was monitored according to the Blois method. The test samples (10–100 μL) were mixed with 1 mL of DPPH (0.1 mM) solution and filled up with methanol to a final volume of 4 mL. Absorbance of the resulting solution was measured at 517 nm in a visible spectrophotometer (Model 166, Systronics, India). The free radical scavenging rate of the reaction solution was calculated as a percentage (%) of DPPH decolouration using the equation (1) I(%)=(Ablank−Asample/Ablank)×100, where A blank is the absorbance of the control reaction mixture excluding the test compounds, and A sample is the absorbance of the test compounds. Radical scavenging potential was expressed as IC50 value, which represents the sample concentration at which 50% of the DPPH radicals were scavenged. Tests were carried out in triplicate and the results were expressed as mean values ± standard deviations.
DPPH radical scavenging activity evaluation is a standard assay in antioxidant activity studies and offers a rapid technique for screening the radical scavenging activity of specific compounds [24]. The free radical scavenging activity of newly synthesized compounds was tested by their ability to bleach the stable radical DPPH. The activity was monitored by following the absorption at 517 nm in a visible spectrophotometer. In the presence of any free radical scavenger, this odd electron pairs up and causes the diminishing of absorption band which is proportional to the number of electrons taken up. The activity was studied at different concentrations for each compound. […] Resulting from a color change from purple to yellow the absorbance decreased when the antioxidant molecule can quench DPPH free radical through donation of hydrogen atom or by electron donating to form a stable DPPH molecule.

[2] = superoxide radical scavenging assay (NBT, xanthine-xanthine oxidase system); format: biochemical; conditions: NBT reduction, pH 7.8, 560 nm, three replicates
Protocol: Superoxide radical scavenging activity was measured as described by Kovala-Demertzi et al., (2004). The assay is based on the reduction of nitroblue tetrazolium (NBT) by superoxide ions generated by the xanthine-xanthine oxidase system (X–XO). The reaction system contained 0.2 mM xanthine and 0.6 mM NBT in 0.1 M phosphate buffer, pH 7.8. The tested compounds were dissolved in methanol. The reaction was started by addition of XO (0.07 U mL^−1), an activity which allowed to yield the absorbance change between 0.03 and 0.04 per minute, at 560 nm. The extent of NBT reduction was followed spectrophotometrically, by measuring the increase of the absorbance at 560 nm. All the experiments were replicated three times. The IC50 of each compound was defined as the concentration which inhibited 50% of the NBT reduction by O2 ^•− produced in the X–XO system.
Superoxide anion radical is normally initially formed, and its effects can be magnified because it produces other kinds of free radicals and oxidizing agents. The enzymatic superoxide anion radical was generated by the xanthine/xanthine oxidase reaction system. The production of superoxide was estimated by the nitroblue tetrazolium method. […] Differently, in the m-position, methoxy and hydroxyl groups act as an electron-withdrawing properties, ([…]), which are possible for providing a destabilizing effect.

[3] = tested on: Staphylococcus aureus (NCIM 5021); test: agar disc diffusion, zone of inhibition; format: cell-based; conditions: S. aureus, discs 6 mm, test compounds 100 µg/mL in DMSO, standards 10 µg/disc, 37°C 24 h, average of three replicates; for zone of inhibition at 100 µg/mL: Staphylococcus aureus, NCIM5021, read-out: zone of inhibition
Protocol: (§1) The in vitro antimicrobial screening effects of the compounds (3 and 5a–j) were individually tested against a panel of bacteria and fungi including Staphylococcus aureus (NCIM 5021), Bacillus subtilis (NCIM 2999), Pseudomonas aeruginosa (NCIM 5029), Escherichia coli (NCIM 2574), Candida. albicans (NCIM 3471), and Aspergillus flavus (NCIM 524). Microbial strains were cultured overnight at 37°C in nutrient and potato dextrose agar medium. All the pure microbial strains were obtained from National Chemical Laboratory (NCL), Pune, India.
(§2) The antibacterial activity of compounds was determined by agar disc diffusion method. Briefly, a suspension of tested bacterial strains was spread on the nutrient agar medium and potato dextrose agar for fungi. The discs (6 mm in diameter) impregnated with test chemicals each dissolved in concentration (100 μg/mL in DMSO) were placed on the inoculated agar and these plates were kept at 4°C for 2 h. The plate was incubated at 37°C for 24 h in case of bacteria and 48 h at 28°C in case of fungi. streptomycin (10 μg/disc) and fluconazole (10 μg/disc) were used as the standards for antibacterial and antifungal activity, respectively. All the samples were performed in triplicate and the zone of inhibition was measured in millimeters.

[4] = tested on: Bacillus subtilis (NCIM 2999); test: agar disc diffusion, zone of inhibition; format: cell-based; conditions: B. subtilis, discs 6 mm, test compounds 100 µg/mL in DMSO, standards 10 µg/disc, 37°C 24 h, average of three replicates; for zone of inhibition at 100 µg/mL: Bacillus subtilis, NCIM2999, read-out: zone of inhibition
Protocol: as §1, §2

[5] = tested on: Aspergillus flavus (NCIM 524); test: agar disc diffusion, zone of inhibition; format: cell-based; conditions: A. flavus, discs 6 mm, test compounds 100 µg/mL in DMSO, standards 10 µg/disc, 28°C 48 h, average of three replicates; for zone of inhibition at 100 µg/mL: Aspergillus flavus, NCIM524, read-out: zone of inhibition
Protocol: as §1, §2

[6] = tested on: Escherichia coli (NCIM 2574); test: agar disc diffusion, zone of inhibition; format: cell-based; conditions: E. coli, discs 6 mm, test compounds 100 µg/mL in DMSO, standards 10 µg/disc, 37°C 24 h, average of three replicates; for zone of inhibition at 100 µg/mL: Escherichia coli, NCIM2574, read-out: zone of inhibition
Protocol: as §1, §2

A. niger [7] = test: agar disc diffusion, zone of inhibition; format: cell-based; conditions: A. niger, discs 6 mm, test compounds 100 µg/mL in DMSO, standards 10 µg/disc, 28°C 48 h, average of three replicates; for zone of inhibition at 100 µg/mL: Aspergillus niger, read-out: zone of inhibition
Protocol: [The procedure below names another organism; the source lists this organism under the same test.] as §1, §2

[8] = tested on: Pseudomonas aeruginosa (NCIM 5029); test: agar disc diffusion, zone of inhibition; format: cell-based; conditions: P. aeruginosa, discs 6 mm, test compounds 100 µg/mL in DMSO, standards 10 µg/disc, 37°C 24 h, average of three replicates; for zone of inhibition at 100 µg/mL: Pseudomonas aeruginosa, NCIM5029, read-out: zone of inhibition
Protocol: as §1, §2

[9] = tested on: Staphylococcus aureus (NCIM 5021); test: minimum inhibitory concentration by dilution method; format: cell-based; conditions: S. aureus, dilution method, average of three replicates
Protocol: as §1
(§3) The minimum inhibitory concentration of the synthesized compounds was determined by dilution method. The compounds were dissolved and then diluted using DMSO; two-fold serial concentrations of the compounds were employed to determine the MIC. In this method, the test concentrations of chemically synthesized compounds were made from 5 to 125 μg/mL.

[10] = tested on: Bacillus subtilis (NCIM 2999); test: as above; format: cell-based; conditions: B. subtilis, dilution method, average of three replicates
Protocol: as §1, §3

[11] = tested on: Aspergillus flavus (NCIM 524); test: as above; format: cell-based; conditions: A. flavus, dilution method, average of three replicates
Protocol: as §1, §3

[12] = tested on: Escherichia coli (NCIM 2574); test: as above; format: cell-based; conditions: E. coli, dilution method, average of three replicates
Protocol: as §1, §3

A. niger [13] = test: as above; format: cell-based; conditions: A. niger, dilution method, average of three replicates
Protocol: [The procedure below names another organism; the source lists this organism under the same test.] as §1, §3

[14] = tested on: Pseudomonas aeruginosa (NCIM 5029); test: as above; format: cell-based; conditions: P. aeruginosa, dilution method, average of three replicates
Protocol: as §1, §3

[15] = Staphylococcus aureus, NCIM5021, read-out: MIC
[16] = Bacillus subtilis, NCIM2999, read-out: MIC
[17] = Aspergillus flavus, NCIM524, read-out: MIC
[18] = Escherichia coli, NCIM2574, read-out: MIC
[19] = Aspergillus niger, read-out: MIC
[20] = Pseudomonas aeruginosa, NCIM5029, read-out: MIC

SMILES	IC50 DPPH [1]	IC50 Superoxide [2]	zone of inhibition at 100 µg/mL [3]	zone of inhibition at 100 µg/mL [4]	zone of inhibition at 100 µg/mL [5]	zone of inhibition at 100 µg/mL [6]	zone of inhibition at 100 µg/mL (A. niger [7])	zone of inhibition at 100 µg/mL [8]	MIC [9, 15]	MIC [10, 16]	MIC [11, 17]	MIC [12, 18]	MIC (A. niger [13]; [19])	MIC [14, 20]	other results
O=C1O[C@H]([C@@H](O)CO)C(O)=C1O [AA, Ascorbic acid, reference compound]	12.6 ± 0.43 µg/mL (≈ 71.5 µM)														
COc1ccc(O)c(C(C)(C)C)c1 [BHA, butylated hydroxyanisole, reference compound]		13.4 ± 0.29 µg/mL (≈ 74.3 µM)													
CC(=O)Nc1ccc(N=Cc2cc3ccccc3o2)cc1 [Compound 3, N-(4-((benzofuran-2-ylmethylene)amino)phenyl)acetamide]	95.3 ± 0.76 µg/mL (≈ 342 µM)	85.1 ± 0.33 µg/mL (≈ 306 µM)	8 mm	7 mm	12.5 mm	11 mm	12.4 mm	10 mm	75 µg/mL (≈ 269 µM)	75 µg/mL (≈ 269 µM)	75 µg/mL (≈ 269 µM)	> 100 µg/mL	75 µg/mL (≈ 269 µM)	> 100 µg/mL	
CC(=O)N(C(=O)Cc1ccccc1)c1ccc(N=Cc2cc3ccccc3o2)cc1 [Compound 5b, N-acetyl-N-(4-((benzofuran-2-ylmethylene)amino)phenyl)-2-phenylacetamide]	85.3 ± 0.14 µg/mL (≈ 215 µM)	92.0 ± 0.35 µg/mL (≈ 232 µM)	10 mm	10 mm	15 mm	10 mm	12 mm	11 mm	50 µg/mL (≈ 126 µM)	30 µg/mL (≈ 75.7 µM)	25 µg/mL (≈ 63.1 µM)	50 µg/mL (≈ 126 µM)	25 µg/mL (≈ 63.1 µM)	30 µg/mL (≈ 75.7 µM)	melting point: 193 °C
CC(=O)N(C(=O)OCc1ccccc1Cl)c1ccc(N=Cc2cc3ccccc3o2)cc1 [Compound 5d, 2-chlorobenzylacetyl(4-((benzofuran-2-ylmethylene)amino)phenyl)carbamate]	48.9 ± 0.11 µg/mL (≈ 109 µM)	55.3 ± 0.04 µg/mL (≈ 124 µM)													zone of inhibition [3]: 12 mm; zone of inhibition [4]: 14 mm; zone of inhibition [5]: 11 mm; zone of inhibition [6]: 10 mm; zone of inhibition (A. niger [7]): 13.7 mm; zone of inhibition [8]: 13 mm; MIC [9]: 30 µg/mL (≈ 67.1 µM); MIC [10]: 50 µg/mL (≈ 112 µM); MIC [11]: 40 µg/mL (≈ 89.5 µM); MIC [12]: 50 µg/mL (≈ 112 µM); MIC (A. niger [13]): 25 µg/mL (≈ 55.9 µM); MIC [14]: 50 µg/mL (≈ 112 µM)
CC(=O)N(C(=O)c1ccc([N+](=O)[O-])cc1)c1ccc(N=Cc2cc3ccccc3o2)cc1 [Compound 5e, N-acetyl-N-(4-((benzofuran-2-ylmethylene)amino)phenyl)-4-nitrobenzamide]	87.4 ± 0.31 µg/mL (≈ 204 µM)	79.2 ± 0.24 µg/mL (≈ 185 µM)	14 mm	11 mm	13.6 mm	9 mm	14.1 mm	11 mm	15 µg/mL (≈ 35.1 µM)	15 µg/mL (≈ 35.1 µM)	20 µg/mL (≈ 46.8 µM)	25 µg/mL (≈ 58.5 µM)	20 µg/mL (≈ 46.8 µM)	25 µg/mL (≈ 58.5 µM)	melting point: 182 °C
OC(Cn1cncn1)(Cn1cncn1)c1ccc(F)cc1F [Fluconazole, fluconazole, reference compound]					19 mm		16 mm				5 µg/mL (≈ 16.3 µM)		5 µg/mL (≈ 16.3 µM)		
[H]/N=C(/N)N[C@H]1[C@H](O)[C@@H](O)[C@H](O[C@@H]2O[C@@H](C)[C@](O)(C=O)[C@H]2O[C@@H]2O[C@@H](CO)[C@H](O)[C@@H](O)[C@@H]2NC)[C@@H](N/C(N)=N\[H])[C@@H]1O [Streptomycin, streptomycin, reference compound]			14.1 mm	13.4 mm		16.5 mm		14 mm	5 µg/mL (≈ 8.6 µM)	5 µg/mL (≈ 8.6 µM)		5 µg/mL (≈ 8.6 µM)		5 µg/mL (≈ 8.6 µM)	
